Results from patent US20220288095A1, “SIALIC ACID FOR USE IN THE TREATMENT OF PSORIASIS” (LifeScience AS, priority 2019, published 2022).

Tested on: psoriasis
Assay: Treatment of an adult with psoriasis with NGNA
Assay type: in vivo, human
Conditions: compared to previous treatments
Method: Example 2. An adult with psoriasis was treated with 5 mg NGNA per day administered sublingually. Administration caused symptoms associated with the psoriasis including redness, scaling spots, itching, burning and soreness to be reduced as compared to previous treatments.
Example 3. An adult with psoriasis was treated with 5 g NGNA per day administered orally. Administration caused symptoms associated with the psoriasis including redness, scaling spots, itching, burning and soreness to be reduced as compared to previous treatments.
Example 4. An adult with psoriasis was treated with NGNA supplied in a hot water bath.
Example 5. An adult with psoriasis was treated with a dermal spray solution of NGNA in water.

Measured: symptoms associated with the psoriasis including redness, scaling spots, itching, burning and soreness

O=C(CO)N[C@H]1[C@H]([C@H](O)[C@H](O)CO)O[C@](O)(C(=O)O)C[C@@H]1O [NGNA, n-glycolylneuraminic acid]
reduced: 5 mg NGNA per day sublingually | 5 g NGNA per day orally | NGNA supplied in a hot water bath | dermal spray solution of NGNA in water
